From US20080153910A1, “LYSINE IN THERAPEUTIC ANGIOGENESIS FOR CARDIAC AND CEREBRAL/NEURAL REPERFUSION” (priority 2001, published 2008)
Entries after “also recorded” stand apart in the source; their conditions may differ.

Experiments:
protein synthesis = assay: 35S-Methionine incorporation in acute surgical wound tissue; assay type: in vivo; details: 72 hrs post surgery, topical, vs control wound, HCl
collagen synthesis = assay: 14C-Glycine incorporation in wound tissue; assay type: in vivo; details: experimental wound, 100% (w/w) topical, 0.25 to 100 mg/sq. in
From the text: As glycine is present at every third position in the primary sequence of Collagen, ^14C-Glycine incorporation in the wound tissue was supposed to give an idea of differential collagen synthesis in experimental and control wounds.

adherent cellular growth = assay: Cellular expansion in culture (in-vitro); assay type: cell-based; details: compared to l-lysine; d-Lysine about 10 mcg/ml added load
From the text: Photo 12, cell culture photographs of d-Lysine (about 10 mcg/ml of added load, in addition to the usual load of I-Lysine, whatever was there in the media as the metabolic requirement) mediated cellular expansion in culture. […] In-situ controlled and physiological expansion of constituent cells in a wound bed, including the endothelial cells and their mediation of normal angiogenic process, mediate only by lysine/derivative(s), without addition/intervention of any other additive(s), whatsoever, is the essence of present invention.

angiogenesis = assay: Oligo-lysine and d-lysine induced cell expansion and angiogenesis in-vivo; details: compared to l-lysine
hybridoma cell mass = details: compared to other physico-chemical means (Datta, D et al. 1997); cited from earlier work
acute surgical wounds = assay: Acute surgical wound model (full thickness skin incisions); assay type: in vivo, Rabbits
Procedure: Rabbits (about 1.5 Kg body wt.) from Haffkine Biopharmaceuticals, Mumbai, India were used for acute surgical wound model experimentations.
For acute surgical wound experiments, dorsal paravertebral skin was shaved in both the groups. Full thickness skin incisions (about 1 inch long) were made on either side of the vertebral column under local anaesthesia. In the experimental group, “lysine” in powder form(s) was instilled/spinkled/applied (about 10-15 mg) in each wound and the wounds were closed by single suture each to keep the edges apposed. No surface/systemic antibiotics were given to the animals dressed with “lysine”. Similar treatments were given to the control wounds except for omitting the “lysine” dressing altogether. Control wounds were protected with surface antibiotics ointment, applied at the time of each dressing. The wounds were covered with adhesive plasters in both the groups. Dressings were replaced every 48-72 hrs.
(§1) Tissue biopsies were taken from both groups—either animals or human beings—from appropriate wound site(s)/cardiac tissue (myocardium) at various time points post surgery/applications/dressings with the active ingredient(s), fixed at room temp. for 24 hrs. in formal saline (4% v/v). Tissue sections were stained with haematoxylin and eosin and observed under light microscope.
For examination of wound tissues under scanning electron microscope, skin tissues were taken (about 1.5 inch square) surgically under local anaesthesia in such a way that the original wound incision lied at the center of this piece of skin tissue, which was fixed in formal saline (4%) for 24 hrs at room temp. and pressure. Before mounting on to the observation stub with the help of a double faced adhesive tape, the wet tissues were dried adequately first with tissue papers and then at 37 degree Centrigrade incubator for about 2 hrs. Finally the dried tissues were cut with scissors in such a way that the cut line in each case was perpendicular to the original incision line. The finally prepared samples were gold coated in a hummer for around 4 minutes in vacuum and examined in a scanning electron microscope (Jeol).

chronic wounds = assay: Controlled open trial of lysine in chronic human wounds; assay type: in vivo
From the text: Chronic wounds of different anatomical locations as well as etiology were included in the controlled open trial of “lysine” for it's/their ability to induce angiogenesis and induction of the healthy granulation tissue formation in these chronic wounds. These included diabetic wounds and ulcers of various durations and severity, bed sores and pressure sores of various durations, infected wounds and cellulitic wounds of various origins, burns of different degrees and extents—both infected and otherwise, amputations, skingrafts, venous ulcers and even leprotic wounds and ulcers of long standing.
The wounds were debrided manually with gauge pieces soaked in normal saline to the point of bleeding of smaller vessels at the base of the wounds (wound-bed). Some of the chronic wounds were debrided surgically depending on the severity of the wound condition(s). Dressings were done with adequate amounts of the amino acid and/derivative(s) applied to the wound site(s) topically/locally. Wounds were closed with moistened gauge piece and adhesive tapes and the procedure repeated every 72-96 hrs. This approach constituted the experimental group subjects. In the control groups, conventional therapy were instituted both in terms of surgical/manual/enzymatic debridements as well as applying usual medications e.g. betadine, salutyl (a preparation which removes ischaemia by inducing angiogenesis in ischaemic wounds), trypsin, chymotrypsin, metronidazole preparations, silver sulfadiazine, regranex (a PDGF based healing agent containing “small” amount of the cationic amino acid lysine as “stabilizing agent”, along with quite a few other additives and ingredients), various surface antibiotics etc., depending on the clinical condition in question.
as §1

ischaemic myocardium = assay: Cardiac angiogenesis / coronary ischaemia model; assay type: in vivo, sheep
Procedure: For cardiac angiogenesis experiments, healthy immunized adult sheep, weighing 20-30 Kgs were selected. The selected animals underwent routine blood tests and echocardiography prior to surgery which acted as the base line data. Under general anaesthesia, 4 sheep were operated through a left thoracotomy. […] In one of the experimental animals, in addition to the intramuscular injection of lysine, about 10 ml of the saturated solution of lysine was injected at the root of the aorta through a pig-tail catheter passed retrogradely through the descending thoracic aorta. […] Post-operative echocardiogram were done in all the animals at 96 hrs post-surgery to assess the left ventricular wall motion. Two weeks post-surgery echocardiograms were done to assess left ventricular wall motion. The animals were sacrificed and autopsy of the hearts were done for examination of the degree of angiogenesis.
as §1, with “microscope. […]” for “microscope.”

Cl.NCCCC[C@H](N)C(=O)O [L-lysine HCl]
35S-Methionine incorporation (protein synthesis; listed as 100% (w/w) powder formulation): Significant difference
35S-Methionine incorporation (protein synthesis; listed as amino acid): Significantly more
14C-Glycine incorporation (collagen synthesis): Comparatively low incorporation

NCCCC[C@@H](N)C(=O)O [d-Lysine]
cellular expansion / growth in-vitro (adherent cellular growth): equally effective
angiogenesis in-vivo (angiogenesis): equally effective
expansion of cells in-vivo (angiogenesis): equally effective

NCCCC[C@H](N)C(=O)O [lysine, Lysine]
expansion of biomass (cell population) (hybridoma cell mass): expand the biomass (cell population) at the least possible time
granulation tissue (scanning electron microscopy) (acute surgical wounds; acute surgical incision dressed with topically applied lysine, 72 hrs post surgery): spongy granulation tissue
dividing cells in-vivo (acute surgical wounds; acute surgical incision model, systemic application): stratified layers of dividing cells
histopathology: cellular thickening from basal keratinocyte layer (acute surgical wounds; rabbit, experimental vs control wound): extensive cellular thickening from the basal keratinocyte layer
granulation tissue (scanning electron microscopy) (acute surgical wounds; systemic lysine, i.p. injection, 5 ml, 5 mg/ml): spongy granulation tissue in the vicinity of the incision
in-situ tissue repair (chronic wounds; all types of acute and chronic wounds of both animal and human origin): excellent tissue regeneration in-situ
granulation tissue / angiogenic response (chronic wounds; bed sore, about two weeks of topical application): Extensive granulation tissue and profuse angiogenic response
time to skin graft (chronic wounds; cellulitic wound following 3rd degree burn): around two weeks
granulation/angiogenic tissue in wound bed (chronic wounds; cellulitic wound following 3rd degree burn, 11th day post initiation of therapy): extensive granulation/angiogenic tissue
granulation/angiogenesis (chronic wounds; cellulitic wound following 3rd degree burn, third day of topical therapy): reasonable granulation/angiogenesis
blood cell intravasation in the wound area (chronic wounds; chronic diabetic ulcer, around 11th day post initiation of therapy): extensive blood cell intravasation
glandular structures (histopathology) (chronic wounds; chronic diabetic ulcer, topical): healthy glandular structures
angiogenic response (histopathology) (chronic wounds; chronic human wounds, topical): profuse angiogenic response; also recorded: Extensive angiogenic response
time to skin graft (clinical end point) (chronic wounds; chronic stump wound): around two weeks
granulation (chronic wounds; chronic stump wound, within two weeks of topical therapy): extensive granulation
Keratinocyte layer thickening (histopathology) (chronic wounds; experimental wounds of human origin): very advanced degree of Keratinocyte layer thickening
time to ready for skin graft (chronic wounds; infected third degree burn, post institution of therapy): 13 days
induction of granulation tissue/angiogenesis (chronic wounds; infected third degree burn, within around two weeks): remarkable induction of granulation tissue/angiogenesis
granulation/angiogenesis (chronic wounds; leprotic wound (about 3 yr old), topical): very good granulation/angiogenesi-s
reduction in size (chronic wounds; leprotic wound, about 12 weeks topical treatment): about 60%
time to initiation of repair-by-in-situ-regeneration (chronic wounds; topical and/or systemic therapy): 72 to 96 h
time to first appearance of healthy granulation tissue (chronic wounds; wounds of different locations, origins and durations): 72 to 96 h
echocardiography: movement of myocardium in ischaemic zones (ischaemic myocardium; 96 hrs post surgery): definite non-asynchronous movement of the myocardium
hierarchical nature of the angiogenic response (ischaemic myocardium; 21 days post surgery): capillaries filled with blood cells
angiogenic response in ischaemic cardiac muscle tissue (ischaemic myocardium; 21 days post surgery, vs control): extensive angiogenic response
histopathology: angiogenic response (ischaemic myocardium; around two-weeks, vs control): advanced degree of matured angiogenic response
